# Results as given in patent publication US20100249145A1, “Inhibitors of VEGF Receptor and HGF Receptor Signaling” (Methylgene, Inc., priority 2005, published 2010).
# Key:
# [1] = molecular target: T1, recombinant human c-Met/HGF receptor (Homo sapiens, UniProt P08581); experiment: In vitro receptor tyrosine kinase assay (DELFIA), c-Met/HGF receptor; format: biochemical; details: Table 31; ATP 10 uM, enzyme 25 nM; read-out: CMet ic50
# T1 construct: His tag (histidine tag from pBlueBacHis2A); made in house; host or cells: Hi-5 cells (Trichoplusia ni), recombinant baculovirus
# T1 sequence (P08581 1078-1337): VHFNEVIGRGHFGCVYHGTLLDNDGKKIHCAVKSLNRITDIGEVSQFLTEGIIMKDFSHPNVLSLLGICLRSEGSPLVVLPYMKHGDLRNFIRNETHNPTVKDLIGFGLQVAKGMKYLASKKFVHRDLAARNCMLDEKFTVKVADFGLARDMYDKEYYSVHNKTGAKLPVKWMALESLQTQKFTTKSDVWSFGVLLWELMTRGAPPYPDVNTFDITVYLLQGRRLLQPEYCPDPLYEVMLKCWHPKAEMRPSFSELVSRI
# [2] = system: A549; experiment: A549 wound healing inhibition (HGF dependent migration); format: cell-based; details: Homo sapiens, Table 31, read-out: A549 wound healing inbib IC50
# Excerpt: (§1) HGF has well known activity in terms of inducing scattering and migration (wound healing) (Wells et al., Cell Motil Cytoskeleton. 2005 November 62(3):180-94; Miura et al., Urology 2001 December 58(6):1064-9; Nishimura et al., Int J. Urol. 1998 May 5(3):276-81; Wang et al., Mol Cancer Ther. 2003 November; 2(11):1085-92; and Christensen et al., Cancer Res. 2003 Nov. 1; 63(21):7345-55).
# [3] = system: DU145; experiment: DU145 scattering inhibition (HGF dependent scattering); format: cell-based; details: Homo sapiens, DU-145, Table 31, read-out: DU145 scattering inhib IC50
# Excerpt: as §1
# [4] = molecular target: T2, VEGF receptor KDR (Homo sapiens, UniProt P35968); experiment: In vitro receptor tyrosine kinase assay (DELFIA), VEGF receptor KDR; format: biochemical; details: Table 31; ATP 0.6 uM, enzyme 5 nM; read-out: VEGFR IC50
# T2 construct: made in house; host or cells: Sf9 cells (Spodoptera frugiperda), recombinant baculovirus
# T2 sequence (P35968 806-1356): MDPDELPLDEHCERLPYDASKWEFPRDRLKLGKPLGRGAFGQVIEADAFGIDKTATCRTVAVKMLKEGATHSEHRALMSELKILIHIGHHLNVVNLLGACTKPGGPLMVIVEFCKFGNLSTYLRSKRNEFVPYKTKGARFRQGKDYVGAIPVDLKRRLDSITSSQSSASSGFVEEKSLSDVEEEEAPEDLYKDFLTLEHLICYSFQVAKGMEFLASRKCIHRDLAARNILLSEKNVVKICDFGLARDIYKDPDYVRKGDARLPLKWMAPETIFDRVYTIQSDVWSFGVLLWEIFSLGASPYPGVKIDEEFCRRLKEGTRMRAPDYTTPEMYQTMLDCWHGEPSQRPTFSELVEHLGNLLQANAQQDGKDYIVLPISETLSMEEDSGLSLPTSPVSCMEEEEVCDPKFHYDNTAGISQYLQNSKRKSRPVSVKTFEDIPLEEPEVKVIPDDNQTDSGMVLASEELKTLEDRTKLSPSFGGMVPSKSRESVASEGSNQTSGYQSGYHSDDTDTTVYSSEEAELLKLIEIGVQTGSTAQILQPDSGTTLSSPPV
# Excerpt: In Vitro Receptor Tyrosine Kinase Assays (c-Met/HGF receptor and VEGF Receptor KDR)
# In the case of VEGF receptor KDR a 1.6-kb cDNA corresponding to the catalytic domain of VEGFR2 or KDR (Genbank accession number AF035121 amino acid 806 to 1356) was cloned into the Pst I site of the pDEST20 Gateway vector (Invitrogen) for the production of a GST-tagged version of that enzyme.
# The GST-VEGFR2806-1356 protein was expressed in Sf9 cells (Spodoptera frugiperda) upon infection with recombinant baculovirus construct.
# The supernatant was loaded onto a GST-agarose column (Sigma) equilibrated with PBS pH 7.3. Following a four column volume (CV) wash with PBS pH 7.3+1% Triton X-100 and 4 CV wash with buffer B (50 mM Tris pH 8.0, 20% glycerol and 100 mM NaCl), bound proteins were step eluted with 5 CV of buffer B supplemented with 5 mM DTT and 15 mM glutathion. […] Final GST-VEGFR2806-1356 protein preparations concentrations were about 0.7 mg/ml with purity approximating 70%.
IC50 [1] [nM],IC50 [2] [nM],IC50 [3] [nM],IC50 [4] [nM],SMILES
< 50,1000 to 5000,1000 to 5000,< 50,CCn1cnc(-c2cc3nccc(Oc4ccc(NC(=S)NC(=O)Cc5ccccc5O)cc4F)c3s2)c1
< 50,1000 to 5000,1000 to 5000,50 to 250,CO/N=C(\C)c1cc2nccc(Oc3ccc(NC(=S)NC(=O)Cc4ccccc4)cc3F)c2s1
50 to 250,< 1000,< 1000,50 to 250,CC(C(=O)NC(=S)Nc1ccc(Oc2ccnc3cc(-c4nccn4C)sc23)c(F)c1)c1ccccc1 (stereo not shown)
< 50,< 1000,< 1000,> 500,Cn1cnc(-c2cc3nccc(Nc4ccc(NC(=S)NC(=O)Cc5ccccc5)cc4F)c3s2)c1
< 50,1000 to 5000,1000 to 5000,< 50,C#Cc1cccc(CC(=O)NC(=S)Nc2ccc(Oc3ccnc4cc(-c5cn(C)cn5)sc34)c(F)c2)c1
50 to 250,< 1000,1000 to 5000,< 50,C#Cc1ccc(CC(=O)NC(=S)Nc2ccc(Oc3ccnc4cc(-c5nccn5C)sc34)c(F)c2)cc1F
< 50,1000 to 5000,1000 to 5000,< 50,C#Cc1ccc(F)c(CC(=O)NC(=S)Nc2ccc(Oc3ccnc4cc(-c5cn(C)cn5)sc34)c(F)c2)c1
< 50,< 1000,< 1000,< 50,C#Cc1cc(F)ccc1CC(=O)NC(=S)Nc1ccc(Oc2ccnc3cc(-c4cn(C)cn4)sc23)c(F)c1
< 50,< 1000,< 1000,< 50,C#Cc1cc(F)ccc1CC(=O)NC(=S)Nc1ccc(Oc2ccnc3cc(-c4cn(CC)cn4)sc23)c(F)c1
< 50,1000 to 5000,< 1000,< 50,C#Cc1cc(F)ccc1CC(=O)NC(=S)Nc1ccc(Oc2ccnc3cc(-c4ccc(CN5CCN(C)CC5)cc4)sc23)c(F)c1
< 50,< 1000,< 1000,< 50,C#Cc1cc(F)ccc1CC(=O)NC(=S)Nc1ccc(Oc2ccnc3cc(-c4cn(CCN5CCCC5)cn4)sc23)c(F)c1
< 50,< 1000,< 1000,50 to 250,C#Cc1cc(F)ccc1CC(=O)NC(=S)Nc1ccc(Oc2ccnc3cc(C4=CCN(C)CC4)sc23)c(F)c1
< 50,< 1000,< 1000,250 to 500,CCn1cc(-c2cc3nccc(Oc4ccc(NC(=S)NC(=O)Cc5ccccc5)cc4F)c3s2)nn1
< 50,< 1000,< 1000,< 50,C#Cc1ccccc1CC(=O)NC(=S)Nc1ccc(Oc2ccnc3cc(-c4ccc(CNCCOC)cn4)sc23)c(F)c1
< 50,< 1000,< 1000,< 50,C#Cc1cc(F)ccc1CC(=O)NC(=S)Nc1ccc(Oc2ccnc3cc(-c4cccc[n+]4[O-])sc23)c(F)c1
< 50,< 1000,< 1000,< 50,C=C(F)c1ccccc1CC(=O)NC(=S)Nc1ccc(Oc2ccnc3cc(-c4cn(C)cn4)sc23)c(F)c1
< 50,< 1000,< 1000,50 to 250,CS(=O)(=O)c1ccc(-c2cc3nccc(Oc4ccc(NC(=S)NC(=O)Cc5ccc(F)cc5)cc4F)c3s2)cc1
< 50,< 1000,< 1000,,COCCN(CCOC)Cc1cccc(-c2cc3nccc(Oc4ccc(NC(=S)NC(=O)Cc5ccc(F)cc5)cc4F)c3s2)c1

# Further lines, the compound ahead of its results:
SMILES,IC50 [1] [nM],IC50 [2] [nM],IC50 [3] [nM],IC50 [4] [nM]
CCn1cncc1-c1cc2nccc(Oc3ccc(NC(=S)NC(=O)Cc4ccccc4OC)cc3F)c2s1,< 50,1000 to 5000,< 1000,
CN(c1ccc(NC(=S)NC(=O)Cc2ccccc2)cc1F)c1ccnc2ccsc12,250 to 500,5000 to 10000,5000 to 10000,> 500
CN(c1ccc(NC(=S)NC(=O)Cc2ccccc2)cc1F)c1ccnc2cc(-c3nccn3C)sc12,< 50,< 1000,< 1000,> 500
O=C(Cc1ccccc1)NC(=S)Nc1ccc(Nc2ccnc3ccsc23)c(F)c1,50 to 250,< 1000,1000 to 5000,> 500
CN1CCN(CCN(C)Cc2ccc(-c3cc4nccc(Oc5ccc(NC(=S)NC(=O)Cc6ccccc6)cc5F)c4s3)cc2)CC1,< 50,< 1000,< 1000,< 50
C#Cc1ccc(CC(=O)NC(=S)Nc2ccc(Oc3ccnc4cc(-c5cn(CCN6CCCC6)cn5)sc34)c(F)c2)cc1,50 to 250,> 10000,> 10000,< 50
C#Cc1ccc(CC(=O)NC(=S)Nc2ccc(Oc3ccnc4cc(-c5ccc(CN6CCN(C)CC6)cc5)sc34)c(F)c2)cc1,50 to 250,> 10000,1000 to 5000,< 50
C#Cc1ccc(F)c(CC(=O)NC(=S)Nc2ccc(Oc3ccnc4cc(-c5nccn5C)sc34)c(F)c2)c1,< 50,1000 to 5000,1000 to 5000,< 50
C#Cc1ccc(CC(=O)NC(=S)Nc2ccc(Oc3ccnc4cc(-c5cn(CC)cn5)sc34)c(F)c2)cc1F,50 to 250,> 10000,1000 to 5000,< 50
C#Cc1cc(F)ccc1CC(=O)NC(=S)Nc1ccc(Oc2ccnc3cc(-c4nccn4C)sc23)c(F)c1,< 50,< 1000,< 1000,< 50
C#Cc1cc2nccc(Oc3ccc(NC(=S)NC(=O)Cc4ccccc4)cc3F)c2s1,50 to 250,> 10000,1000 to 5000,> 500
CNC(=O)N1CCN(Cc2ccc(-c3cc4nccc(Oc5ccc(NC(=S)NC(=O)Cc6ccccc6)cc5F)c4s3)cc2)CC1,< 50,< 1000,< 1000,< 50
CNC(=O)N1CCN(Cc2ccc(-c3cc4nccc(Oc5ccc(NC(=S)NC(=O)Cc6ccc(F)cc6)cc5F)c4s3)cc2)CC1,< 50,< 1000,< 1000,< 50
COCCNCc1ccc(-c2cc3nccc(Oc4ccc(NC(=S)NC(=O)Cc5ccc(F)cc5)cc4F)c3s2)cc1,< 50,< 1000,< 1000,< 50
C#Cc1cccc(F)c1CC(=O)NC(=S)Nc1ccc(Oc2ccnc3cc(-c4cn(C)cn4)sc23)c(F)c1,< 50,< 1000,< 1000,< 50
C#Cc1ccccc1CC(=O)NC(=S)Nc1ccc(Oc2ccnc3cc(-c4cccc[n+]4[O-])sc23)c(F)c1,< 50,< 1000,< 1000,< 50
O=C(Cc1ccc(F)cc1)NC(=S)Nc1ccc(Oc2ccnc3cc(-c4cccc[n+]4[O-])sc23)c(F)c1,< 50,< 1000,< 1000,< 50
O=C(Cc1ccc(F)cc1)NC(=S)Nc1ccc(Oc2ccnc3cc(-c4cc[n+]([O-])cc4)sc23)c(F)c1,< 50,< 1000,< 1000,50 to 250
COCCNCc1ccc(-c2cc3nccc(Oc4ccc(NC(=S)NC(=O)Cc5ccc(F)cc5)cc4F)c3s2)nc1,,< 1000,< 1000,< 50
C=C(F)c1cccc(CC(=O)NC(=S)Nc2ccc(Oc3ccnc4cc(-c5cn(C)cn5)sc34)c(F)c2)c1,50 to 250,1000 to 5000,1000 to 5000,50 to 250
CC(=O)N1CC=C(c2cc3nccc(Oc4ccc(NC(=S)NC(=O)Cc5ccc(F)cc5)cc4F)c3s2)CC1,< 50,< 1000,< 1000,< 50
CCN(CCOC)Cc1ccc(-c2cc3nccc(Oc4ccc(NC(=S)NC(=O)Cc5ccc(F)cc5)cc4F)c3s2)cc1,< 50,< 1000,< 1000,< 50
CN(C)C(=O)c1ccc(-c2cc3nccc(Oc4ccc(NC(=S)NC(=O)Cc5ccc(F)cc5)cc4F)c3s2)cc1,< 50,< 1000,< 1000,< 50
COCCNCc1cccc(-c2cc3nccc(Oc4ccc(NC(=S)NC(=O)Cc5ccc(F)cc5)cc4F)c3s2)n1,< 50,< 1000,< 1000,250 to 500
COCCNCc1ccc(-c2cc3nccc(Oc4ccc(NC(=O)NC(=O)Cc5ccc(F)cc5)cc4F)c3s2)cc1,< 50,< 1000,< 1000,50 to 250
